Assay results as given in US20140314791A1, “METHODS OF TREATING CANCER” (DANA-FARBER CANCER INSTITUTE, INC., priority 2012, published 2014).
Like-named read-outs stand apart in the source and are kept apart here.

Columns and labels:
[1] = system: Lkb1-wt (634, 855, and 857) cells; assay: Cell proliferation assay with CHEK1 inhibitors (CCK-8), Lkb1-wt; type: cell-based, mouse; details: read-out: 50% growth inhibition (GI50) concentration
[2] = system: Lkb1-null (t2, t4, and t5) cells; assay: Cell proliferation assay with CHEK1 inhibitors (CCK-8), Lkb1-null; type: cell-based, mouse; details: for GI50: read-out: 50% growth inhibition (GI50) concentration
[3] = system: γH2AX; assay: Western blot analysis of γH2AX after CHEK1 inhibitor treatment; type: cell-based; details: 3 h at the GI50 concentration
[4] = system: Lkb1-wt and Lkb1-null cells; assay: 3H-dTTP incorporation into genomic DNA; type: cell-based, mouse; details: 0.25 μCi 3H-dTTP, 6 h
Procedure: Lkb1-wt and Lkb1-null cells were plated into 96 well plates with 4000 cells/well in 100 μL medium for overnight culturing then incubated with 0.25 μCi ^3H-dTTP (Perkin Elmer, NET221H250UC) for 6 h and used 0.25 μCi ^3H-deoxythymidine (Perkin Elmer, NET221H250UC) as positive and 0.25 μCi^3H-dTTP/non-cells (medium alone) as negative controls. Cells were washed with PBS, trypsinized, and DNA was captured with a cell harvester on glass fiber filters Filtermat A (Perkin Elmer, #1450-421), which was then placed into a liquid scintillation counting container for counting on a scintillation beta-counter. The data represent mean±SD for 6 replicates.
(§1) Next it was determined whether adding dTTP to the media could rescue cell death after Dtymk knockdown. Three Lkb1-null cell lines were transduced with shGFP or shDtymk-1 and then selectively cultured in puromycin medium in the presence or absence of 150 μM dTTP for 3 days (Taricani et al., 2010). […] Expression of DTYMK in the shDtymk-1 cells was not determined because the remaining cells were too few for RNA and protein extraction (FIG. 4B).

[5] = system: Lkb1-null t2, t4, and t5 cells; assay: dTTP rescue of shDtymk growth phenotype; type: cell-based, mouse; details: 150 μM dTTP
Procedure: (B) Morphology of Lkb1-null t2, t4, and t5 cells transduced with shGFP or shDtymk-1 and then cultured with or without additional 150 μM dTTP in medium for 3 days.
as §1

[6] = system: Chek1; details: Lkb1-wt 634 cells, normalized to shGFP
[7] = system: Lkb1-wt cells; assay: Array-based viral infection and cell proliferation assay (validation), Lkb1-wt; design: species or system mouse; details: 5 days post infection, alamarBlue
Procedure: (§2) (C) Validation study. Relative viability of Lkb1-wt and Lkb1-null cells infected with 340 individual hairpins for 5 days. Genes of interest are highlighted by the colors indicated.
(§3) For array-based viral infection and assessment of proliferation, 2.5 μl virus was mixed with 250 cells in 100 μl medium containing 8 μg/ml polybrene per well in 96-well plates. The plates were spun at 2250 rpm/37° C. for 30 min. Immediately after spinning, supernatants were gently aspirated off and 100 μl fresh medium was added to each well of the 96-well plates. After 2 days incubation, medium was gently aspirated off and 100 fresh medium containing 3 μg/ml puromycin was added to each well of the 96-well plates. The plates were back to culture for additional 3 days and then the viable cells were monitored by alamarBlue (Invitrogen) assay according to manufacturer's instructions.
(§4) To identify Lkb1-null-selective essential genes, a synthetic lethal screen was performed using a pooled 40K murine shRNA lentiviral library for each of the Lkb1-wt and Lkb1-null cell lines described above. Relative abundance of shRNAs in each cell line sample was determined by deep-sequencing analysis, and for every shRNA, a log 2 Fold Change (log 2FC) value was calculated from the difference in relative abundance at a late time point after infection versus the initial shRNA-infected sample. An unsupervised hierarchical clustering analysis of the ranked hairpins from the triplicate pooled shRNA library screens of Lkb1-wt and Lkb1-null mouse cancer cells is shown in FIG. 1A. […] The ranked hairpins were collapsed by using two methods, a RIGER analysis (KS t-test based statistics) and a weighted second best analysis to rank genes that selectively impaired proliferation/viability in Lkb1-null cells. A union of 344 genes, identified by the top 100 individual hairpins for 88 genes (Table 1) and the top 200 genes from both the KS (Table 2) and weighted second best (Table 3), was nominated as the initial prioritized list (FIG. 1B). 340 shRNAs, targeting 70 candidate genes from this prioritized list, were chosen for validation (Table 4). The 70 genes consisted of the top 10 candidates from the KS analysis, as well as 60 others involved in a range of biological processes in an attempt to represent all biological categories in the validation process. Validation was performed in an array format with an assay of relatively short duration (5 days post infection) compared to the primary pooled screen (28 days), which should be a more stringent selection, as it required the anti-proliferative effects to manifest in a short time period. […] Dtymk, Check1, and Pdhb are the top 3 candidate genes, each with 3 hairpins that scored in the validation assay (FIG. 1C).

[8] = system: Lkb1-wt (634, 855, and 857) and Lkb1-null (t2, t4, and t5) cells; assay: Proliferation assay of shRNA-transduced cells (CellTiter-Glo); type: cell-based, mouse; details: in vitro, puromycin 3 μg/ml
Procedure: Viable cells were measured daily using Promega's CellTiter-Glo Assay. Two independent sets of transductions into the 6 cell lines were shown: the first set used shGFP, shDtymk-1, and shChek1-4 (upper panels), and the second set used shGFP, shDtymk-3, and shChek1-1 (lower panels).
Lentiviral production and target cell transduction were performed according to previously description (Moffat et al., 2006). Briefly, 293T cells were co-transfected with pLenti-vector, pCMV-dR8.74psPAX2, and pMD2.G using TransIT-LT1 transfection reagent (Mirus). Thirty-six h after transfection, the supernatant was harvested and spun at 3000 rpm/4° C. for 10 min, and then incubated with target cells in the presence of 8 μg/ml polybrene (Sigma) for 24 h. Two days after infection, the cells were collected for further analysis as indicated in the presence of 3 μg/ml Puromycin (Invitrogen).
Cells were plated into 96-well plates at 2000 cells per well in 100 μl, with addition of puromycin at 3 μg/ml for shRNA lentivirus infected cells, or with addition of variable doses of drug for drug treatment effects. Viable cells were measured daily or for a period of up to 3 days either by CellTiter-Glo Luminescent Cell Viability Assay (Promega) or by Cell Counting Kit-8 (CCK-8) (Dojindo) according to the manufacturer's instructions. All proliferation assays were performed in triplicate wells.
Depletion of DTYMK and CHEK1 was confirmed by Western blot (FIG. 11B).

[9] = system: Lkb1-null cells; assay: Array-based viral infection and cell proliferation assay (validation), Lkb1-null; design: species or system mouse; details: for Growth of Lkb1-wt/Lkb1-null in array-based validation: Table 6; for Null ave-GR: validation, 5 days post infection, alamarBlue
Procedure: as §2, §3, §4

[10] = system: Lkb1-null versus Lkb1-wt cell lines; assay: Large-scale pooled shRNA library screening (murine 40K pool); type: cell-based, mouse; details: for Hairpin-rank in pooled shRNA screen: Table 6; for # Hairpins 1000: number of the gene's hairpins ranked within 1000; for # Hairpins 5000: number of the gene's hairpins ranked within 5000; for # Hairpins 10000: number of the gene's hairpins ranked within 10000
[11] = system: Lkb1-wt (634 and 857) and Lkb1-null (t2 and t4) tumors; assay: Tumor development of shRNA-transduced cells implanted into athymic nude mice; type: in vivo; details: doxycycline treatment for 3 weeks
Procedure: (C) 1×10^6 Lkb1-wt (634 and 857) and Lkb1-null (t2 and t4) cells transduced with the indicated shRNA were implanted into athymic nude mice for 3 weeks. Tumor volume (mm^3) was calculated as […]. The data represent mean±SD for 4 mice. Lkb1-wt 634 and Lkb1-null t4 tumors with the indicated shRNAs were shown (D).
To investigate whether reduced expression of Dtymk or Chek1 inhibited tumor development in vivo, Lkb1-wt (634 and 857) and Lkb1-null (t2 and t4) cells transduced with pTetOn-shGFP, pTetOn-shDtymk-3, or pTetOn-shChek1-4 were implanted into athymic nude mice.

[12] = system: Dtymk; assay: QPCR analysis of Dtymk knockdown in Lkb1-wt 634 cells; details: normalized to shGFP
[13] = gene-level KS score over all hairpins of the gene (Table 2, Top 200 genes by KS), only the first hairpin id is printed
[14] = rank of the gene by NES, KS analysis

| Molecule | mRNA remaining (by qPCR) [6] | WT ave-GR [7] | Growth of Lkb1-wt/Lkb1-null in array-based validation [9] | Null ave-GR [9] | Hairpin-rank in pooled shRNA screen [10] | mRNA remaining (by qPCR) [12] | other results |
| --- | --- | --- | --- | --- | --- | --- | --- |
| O=c1[nH]c2ccc(Cl)cc2c(N[C@@H]2CN3CCC2CC3)c1-c1nc2ccccc2[nH]1 [CHIR124] |  |  |  |  |  |  | GI50 ([1]; Lkb1-wt cells, mean, 3 days): 56 nM; inhibition of Lkb1-null cells stronger than Lkb1-wt cells ([2]; GI50 Lkb1-wt versus Lkb1-null): 3 fold; GI50 ([2]; Lkb1-null cells, mean, 3 days): 19 nM; phosphorylation of H2AX (Western blot) [3]: induced phosphorylation of H2AX |
| Cc1cn([C@H]2C[C@H](O)[C@@H](COP(=O)(O)OP(=O)(O)OP(=O)(O)O)O2)c(=O)[nH]c1=O [dTTP] |  |  |  |  |  |  | passage of radiolabeled dTTP through the cell membrane (incorporation into genomic DNA) [4]: passed through the cell membrane; toxicity of dTTP to shGFP-transduced cells [5]: not to be toxic; growth of shDtymk-transduced Lkb1-null cells with exogenous dTTP ([5]; 3 days): grew as well as shGFP-transduced cells |
| AZD7762 |  |  |  |  |  |  | GI50 [1]: 275 nM; inhibition of Lkb1-null cells stronger than Lkb1-wt cells [2]: 3 fold; GI50 [2]: 90 nM |
| shChek1-1: shRNA hairpin GCTGTGAATAGAATAACTGAA targeting Mouse Chek1 | 35.50% | 1.57 | 2.14 | 0.73 | 327 |  | cell growth compared to shGFP control, Lkb1-null versus Lkb1-wt [8]: inhibited Lkb1-null cell growth more strongly than the growth of Lkb1-wt cells |
| shChek1-2: shRNA hairpin GCCACGAGAATGTAGTGAAAT targeting Mouse Chek1 | 43.90% | 1.07 | 1.26 | 0.85 | 14869 |  |  |
| shChek1-3: shRNA hairpin CCCATGTAGTAGTATCACTTT targeting Mouse Chek1 | 42.10% | 0.45 | 1.64 | 0.27 | 23815 |  | NES [10, 13]: 1.57; NES ([10]; gene-level normalized enrichment score over all hairpins of the gene): 1.520; Gene rank ([10]; gene-level rank by NES): 119; # Hairpins 500 ([10]; number of the gene's hairpins ranked within 500): 1; # Hairpins 1000 [10]: 1; # Hairpins 5000 [10]: 1; # Hairpins 10000 [10]: 1; # HP 500 ([10]; number of the gene's hairpins ranked within top 500): 1; # HP 1000 ([10]; number of the gene's hairpins ranked within top 1000): 1; # HP 5000 ([10]; number of the gene's hairpins ranked within top 5000): 1; # HP 10000 ([10]; number of the gene's hairpins ranked within top 10000): 1; Gene rank [10, 14]: 61 |
| shChek1-4: shRNA hairpin GTGGAAGAAGAGTTGTATGAA targeting Mouse Chek1 | 30.20% | 0.70 | 2.31 | 0.30 | 26693 |  | cell growth compared to shGFP control, Lkb1-null versus Lkb1-wt [8]: inhibited Lkb1-null cell growth more strongly than the growth of Lkb1-wt cells; tumor growth of Lkb1-null tumors expressing shRNA versus shGFP and Lkb1-wt tumors [11]: grew significantly slower |
| shChek1-5: shRNA hairpin GCAACGGTATTTCGGCATAAT targeting Mouse Chek1 | 40.70% | 1.15 | 1.2 | 0.96 | 23858 |  |  |
| shDtymk-2: shRNA hairpin CTTCTCTGCAAACCGCTGGGA targeting Mouse Dtymk |  | 1.21 | 1.18 | 1.03 | 19621 | 66.70% |  |
| shDtymk-3: shRNA hairpin ACGGAACTAGAGGATCACTCT targeting Mouse Dtymk |  | 0.83 | 2.96 | 0.28 | 100 | 27.80% | cell growth compared to shGFP control, Lkb1-null versus Lkb1-wt [8]: inhibition was stronger in Lkb1-null cells; tumor growth of Lkb1-null tumors expressing shRNA versus shGFP and Lkb1-wt tumors [11]: grew significantly slower; Hairpin rank ([10]; Top 100 shRNAs, ranked hairpin list of selectively essential hairpins in Lkb1-null background (log2FC)): 98 |
| shDtymk-4: shRNA hairpin GAAATCGGCAAGCTTCTGAAT targeting Mouse Dtymk (also Human DTYMK) |  | 0.85 | 1.67 | 0.51 | 28546 | 51.10% |  |
| shDtymk-5: shRNA hairpin CAAGACCACGCAGGCCCTCAA targeting Mouse Dtymk (also Human DTYMK) |  | 1.11 | 1.05 | 1.06 | 5760 | 77.90% | NES [10, 13]: 1.53; # Hairpins 1000 [10]: 1; # Hairpins 5000 [10]: 1; # Hairpins 10000 [10]: 2; Gene rank [10, 14]: 103 |
